Test [1] addresses T1, Farnesyl pyrophosphate synthase (Homo sapiens, UniProt P14324).
T1 sequence (P14324 whole entry): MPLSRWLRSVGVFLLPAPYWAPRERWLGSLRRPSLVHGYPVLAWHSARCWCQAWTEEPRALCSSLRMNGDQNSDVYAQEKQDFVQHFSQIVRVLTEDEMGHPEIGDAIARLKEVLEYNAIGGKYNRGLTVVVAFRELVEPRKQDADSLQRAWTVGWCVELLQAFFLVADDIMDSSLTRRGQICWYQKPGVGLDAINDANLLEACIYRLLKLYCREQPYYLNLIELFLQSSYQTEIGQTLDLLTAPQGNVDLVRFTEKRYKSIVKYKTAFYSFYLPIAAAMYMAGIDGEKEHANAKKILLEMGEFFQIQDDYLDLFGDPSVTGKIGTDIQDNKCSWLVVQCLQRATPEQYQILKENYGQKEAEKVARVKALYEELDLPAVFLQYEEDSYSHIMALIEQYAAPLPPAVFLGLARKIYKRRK
Put plainly: Inhibition of human recombinant FPPS using IPP as substrate preincubated with enzyme for 15 mins followed by substrate addition and measured after 1 hr.

Test [2] relates to Rattus norvegicus. Put plainly: Anti-osteoporosis activity against ovariectomized Wistar rat assessed as inhibition of ovariectomy-induced osteoporosis by measuring reduction in serum RANKL/OPG level at 10 mg/kg, po administered daily for 8 weeks following bilateral ovariectomy relative to ovariectomized control. The format is functional. To be noted: 1344 h.
The test system of test [3] is Rattus norvegicus. As to the kind of experiment: Anti-osteoporosis activity against ovariectomized Wistar rat assessed as inhibition of ovariectomy-induced osteoporosis by measuring decrease in serum phosphate level at 1 mg/kg, po administered daily for 8 weeks following bilateral ovariectomy. It is filed as functional, organism-based.
In test [4] the test system is Rattus norvegicus. Put plainly: Anti-osteoporosis activity against ovariectomized Wistar rat assessed as inhibition of ovariectomy-induced osteoporosis by measuring reduction in serum RANKL level at 0.1 to 10 mg/kg, po administered daily for 8 weeks following bilateral ovariectomy. To be noted: dose 0.1-10 mg/kg. It is filed as functional, organism-based.
Test [5] has as its system Rattus norvegicus. Put plainly: Anti-osteoporosis activity against ovariectomized Wistar rat assessed as inhibition of ovariectomy-induced osteoporosis by measuring increase in bone mineral content at 10 mg/kg, po administered daily for 8 weeks following bilateral ovariectomy. It is filed as functional, organism-based.
In test [6] the test system is Rattus norvegicus. As to the kind of experiment: Anti-osteoporosis activity against ovariectomized Wistar rat assessed as inhibition of ovariectomy-induced osteoporosis by measuring increase in serum OPG level at 10 mg/kg, po administered daily for 8 weeks following bilateral ovariectomy relative to ovariectomized control. It is filed as functional. Also on record: scale not given: the % may be the effect or the level left.

For test [7], the system named is Rattus norvegicus. Put plainly: Anti-osteoporosis activity against ovariectomized Wistar rat assessed as inhibition of ovariectomy-induced osteoporosis by measuring fold increase in serum osteoclacin level at 1 to 10 mg/kg, po administered daily for 8 weeks following bilateral ovariectomy relative to ovariectomized control. The format is functional. To be noted: dose 1-10 mg/kg.

Test [8] has as its system Rattus norvegicus. As to the kind of experiment: Anti-osteoporosis activity against ovariectomized Wistar rat assessed as inhibition of ovariectomy-induced osteoporosis by measuring decrease in urinary calcium level at 1 mg/kg, po administered daily for 8 weeks following bilateral ovariectomy. It is filed as functional, organism-based.
In test [9] the test system is Rattus norvegicus. Put plainly: Anti-osteoporosis activity against ovariectomized Wistar rat assessed as inhibition of ovariectomy-induced osteoporosis by measuring increase in bone mineral density at 1 mg/kg, po administered daily for 8 weeks following bilateral ovariectomy. It is filed as functional, organism-based.
Test [10] deals with Rattus norvegicus. As to the kind of experiment: Anti-osteoporosis activity against ovariectomized Wistar rat assessed as inhibition of ovariectomy-induced osteoporosis by measuring decrease in bone-specific isoenzyme of alkaline phosphatase level in serum at 10 mg/kg, po administered daily for 8 weeks following bilateral ovariectomy relative to control. The format is functional. The following applies: 1344 h.

Test [11] deals with Rattus norvegicus. Put plainly: Anti-osteoporosis activity against ovariectomized Wistar rat assessed as inhibition of ovariectomy-induced osteoporosis by measuring decrease in urinary phosphate level at 0.1 to 10 mg/kg, po administered daily for 8 weeks following bilateral ovariectomy. The following applies: dose 0.1-10 mg/kg. It is filed as functional, organism-based.
In test [12] the test system is Rattus norvegicus. Put plainly: Anti-osteoporosis activity against ovariectomized Wistar rat assessed as inhibition of ovariectomy-induced osteoporosis by measuring serum estradiol level at 0.1 to 10 mg/kg, po administered daily for 8 weeks following bilateral ovariectomy. It is filed as functional, organism-based. The following applies: dose 0.1-10 mg/kg.
The subject of test [13] is Rattus norvegicus. As to the kind of experiment: Anti-osteoporosis activity against ovariectomized Wistar rat assessed as inhibition of ovariectomy-induced osteoporosis by measuring decrease in urinary calcium level at 7.5 ug/kg, ip administered once a week for 8 weeks following bilateral ovariectomy. It is filed as functional, organism-based. To be noted: dose 7.5 µg/kg.

The subject of test [14] is Rattus norvegicus. As to the kind of experiment: Anti-osteoporosis activity against ovariectomized Wistar rat assessed as inhibition of ovariectomy-induced osteoporosis by measuring reduction in serum RANKL level at 7.5 ug/kg, ip administered once a week for 8 weeks following bilateral ovariectomy. To be noted: dose 7.5 µg/kg. It is filed as functional, organism-based.

Test [15] has as its system Rattus norvegicus. Put plainly: Anti-osteoporosis activity against ovariectomized Wistar rat assessed as inhibition of ovariectomy-induced osteoporosis by measuring serum estradiol level at 7.5 ug/kg, ip administered once a week for 8 weeks following bilateral ovariectomy. It is filed as functional, organism-based. The following applies: dose 7.5 µg/kg.
Test [16] deals with Rattus norvegicus. As to the kind of experiment: Anti-osteoporosis activity against ovariectomized Wistar rat assessed as inhibition of ovariectomy-induced osteoporosis by measuring decrease in serum phosphate level at 7.5 ug/kg, ip administered once a week for 8 weeks following bilateral ovariectomy. To be noted: dose 7.5 µg/kg. The format is functional, organism-based.
Test [17] relates to Rattus norvegicus. Put plainly: Anti-osteoporosis activity against ovariectomized Wistar rat assessed as inhibition of ovariectomy-induced osteoporosis by measuring decrease in urinary phosphate level at 7.5 ug/kg, ip administered once a week for 8 weeks following bilateral ovariectomy. The format is functional, organism-based. To be noted: dose 7.5 µg/kg.
Test [18] relates to Rattus norvegicus. Put plainly: Anti-osteoporosis activity against ovariectomized Wistar rat assessed as inhibition of ovariectomy-induced osteoporosis by measuring increase in serum OPG level at 7.5 ug/kg, ip administered once a week for 8 weeks following bilateral ovariectomy relative to ovariectomized control. The following applies: dose 7.5 µg/kg. It is filed as functional. More on the design: scale not given: the % may be the effect or the level left.

For test [19], the system named is Rattus norvegicus. Put plainly: Anti-osteoporosis activity against ovariectomized Wistar rat assessed as inhibition of ovariectomy-induced osteoporosis by measuring increase in serum osteoclacin level at 7.5 ug/kg, ip administered once a week for 8 weeks following bilateral ovariectomy relative to ovariectomized control. It is filed as functional. Also on record: scale not given: the % may be the effect or the level left. The following applies: dose 7.5 µg/kg.

Test [20] deals with Rattus norvegicus. As to the kind of experiment: Anti-osteoporosis activity against ovariectomized Wistar rat assessed as inhibition of ovariectomy-induced osteoporosis by measuring reduction in serum RANKL/OPG level at 7.5 ug/kg, ip administered once a week for 8 weeks following bilateral ovariectomy relative to ovariectomized control. The format is functional. The following applies: 1344 h, dose 7.5 µg/kg.

Test [21] relates to Rattus norvegicus. As to the kind of experiment: Anti-osteoporosis activity against ovariectomized Wistar rat assessed as inhibition of ovariectomy-induced osteoporosis by measuring decrease in bone-specific isoenzyme of alkaline phosphatase level in serum at 7.5 ug/kg, ip administered once a week for 8 weeks following bilateral ovariectomy. It is filed as functional, organism-based. To be noted: dose 7.5 µg/kg.

Test [22] relates to Rattus norvegicus. Put plainly: Anti-osteoporosis activity against ovariectomized Wistar rat assessed as inhibition of ovariectomy-induced osteoporosis by measuring decrease in serum calcium level at 7.5 ug/kg, ip administered once a week for 8 weeks following bilateral ovariectomy. To be noted: dose 7.5 µg/kg. It is filed as functional, organism-based.

These results are taken from ChEMBL document CHEMBL5614381, “Farnesyl pyrophosphate synthase inhibitors with antiosteoporosis efficacy in ovariectomized rats: A mixed binding approach beyond bisphosphonates” (Eur J Med Chem, 2024).

The structures appear in SMILES notation. The source made the active and inactive calls. The rule behind the calls is not given here.

Broadly, the IC50 is the concentration that gives 50% inhibition. Consider `COc1cc(C2SP(=S)(Sc3ccccc3)S2)ccc1OCCOc1ccc(C2SP(=S)(Sc3ccccc3)S2)cc1OC` (stereo unspecified), for which, in [1], the IC50 amounted to 3.37 µM.

Consider `COC(=O)/C=C/c1ccc(OCCOc2ccc(/C=C/C(=O)OC)cc2OC)c(OC)c1`, for which, in [1], the IC50 was 1.24 µM.

In the case of `CCOC(=O)/C=C/c1ccc(OCCOc2ccc(/C=C/C(=O)OCC)cc2OC)c(OC)c1`, in [1], the IC50 is 5.98 µM.

The inhibition in vivo is the change of the read-out against control, counted positive when it falls. For `COc1cc(/C=C/C(C)=O)ccc1OCCOc1ccc(/C=C/C(C)=O)cc1OC`, the inhibition in vivo at 10 mg/kg in the test on Rattus norvegicus [2] was 33.3%; in the test with Rattus norvegicus [10], 33%. Moreover, the outcome with Rattus norvegicus [3], in the test with Rattus norvegicus [5], in the test on Rattus norvegicus [8], with Rattus norvegicus [9] and in the test on Rattus norvegicus [11] was Active. The outcome in the test with Rattus norvegicus [4] and in the test on Rattus norvegicus [12] was inactive. For the same compound, the Activity in the test with Rattus norvegicus [6] was 29%. Further, the IC50 in test [1] was found to be 1.11 µM. In the test with Rattus norvegicus [7], the “fold change (FC)” value amounted to 2.

In the case of `O=P(O)(O)C(O)(Cn1ccnc1)P(=O)(O)O` [ZOLEDRONIC ACID ANHYDROUS], the result in the test on Rattus norvegicus [13], in the test on Rattus norvegicus [14] and with Rattus norvegicus [15] was inactive. Further, the result in the test on Rattus norvegicus [16], with Rattus norvegicus [17], in the test on Rattus norvegicus [21] and in the test with Rattus norvegicus [22] was Active. The Activity in the test on Rattus norvegicus [18] stood at 46%; in the test with Rattus norvegicus [19], 174%. In addition, in the test with Rattus norvegicus [20], the inhibition in vivo at 0.0075 mg/kg came to 38%.

In the case of `COc1cc(C=S)ccc1OCCOc1ccc(C=S)cc1OC`, the IC50 in test [1] turned out to be 22.7 µM.

As for `COc1cc(C=O)ccc1OCCOc1ccc(C=O)cc1OC`, in test [1], the IC50 is 12.6 µM.

Regarding `COc1cc(C(O)P(=O)(N(C)C)N(C)C)ccc1OCCOc1ccc(C(O)P(=O)(N(C)C)N(C)C)cc1OC` (stereo unspecified), in test [1], the IC50 is 5.54 µM.

Turning to `COc1cc(C(O)P(=O)(OC)OC)ccc1OCCOc1ccc(C(O)P(=O)(OC)OC)cc1OC` (stereo unspecified), the 50% inhibitory concentration (IC50) in test [1] is 21.4 µM.

`COc1cc(/C=C/C#N)ccc1OCCOc1ccc(/C=C/C#N)cc1OC`: in [1], the half-inhibitory concentration (IC50) stood at 3.22 µM.

Regarding `CCN(CC)P(=O)(C(O)c1ccc(OCCOc2ccc(C(O)P(=O)(N(CC)CC)N(CC)CC)cc2OC)c(OC)c1)N(CC)CC` (stereo unspecified), the IC50 in [1] stood at 2.47 µM.
